Laboratory results: PubChem BioAssay (NCI)
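Following 48 hours of exposure in 96-well plates, responses at five concentrations were used to interpolate endpoints linearly. GI50 marks 50% less growth. At the TGI there is no net growth.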

Key:
Test in all cases: NCI anticancer screen, dose series, 48 h
U251 CNS = test system: U251 CNS
HS 578T breast = test system: HS 578T breast
HL-60(TB) leukemia = test system: HL-60(TB) leukemia
SF-539 CNS = test system: SF-539 CNS
IGROV1 ovarian = test system: IGROV1 ovarian
NCI-H23 lung = test system: NCI-H23 lung
COLO 205 colon = test system: COLO 205 colon
HCT-116 colon = test system: HCT-116 colon
HCC-2998 colon = test system: HCC-2998 colon
EKVX NSCLC = test system: EKVX NSCLC

SMILES	GI50 (U251 CNS) [µM]	TGI (U251 CNS) [µM]	GI50 (HS 578T breast) [µM]	TGI (HS 578T breast) [µM]	GI50 (HL-60(TB) leukemia) [µM]	TGI (HL-60(TB) leukemia) [µM]	GI50 (SF-539 CNS) [µM]	TGI (SF-539 CNS) [µM]	GI50 (IGROV1 ovarian) [µM]	TGI (IGROV1 ovarian) [µM]	GI50 (NCI-H23 lung) [µM]	TGI (NCI-H23 lung) [µM]	GI50 (COLO 205 colon) [µM]	TGI (COLO 205 colon) [µM]	GI50 (HCT-116 colon) [µM]	TGI (HCT-116 colon) [µM]	GI50 (HCC-2998 colon) [µM]	TGI (HCC-2998 colon) [µM]	GI50 (EKVX NSCLC) [µM]	TGI (EKVX NSCLC) [µM]
O=C1c2cccc3c([N+](=O)[O-])ccc(c23)C(=O)N1CCCCl	> 10	> 10	4.6	> 10	5.18	> 10	> 10	> 10	1.9	5	5.07	> 10	> 10	> 10	1.71	3.16	5.85	> 10	–	–
CC[C@]12C=CCN3CC[C@@]4(c5ccc(OC)cc5N(C)[C@H]4[C@@](O)(C(=O)OC)[C@@H]1OC(=O)CCCC[P+](c1ccccc1)(c1ccccc1)c1ccccc1)[C@@H]32	0.441	4.4	1.34	9.11	0.34	1.15	0.993	12.1	0.486	1.98	1.07	10.5	0.242	0.586	0.777	12	0.42	2.71	0.907	15.8
CC(C)(C)n1nc(C2CC2)cc1NC(=O)Nc1ccc(Cl)cc1	–	> 100	–	> 100	–	> 100	–	> 100	–	> 100	–	> 100	–	> 100	–	> 100	–	> 100	–	> 100
Nc1nc(=O)c2[nH]cnc2n1O	–	> 100	–	> 100	–	> 100	–	> 100	–	> 100	–	> 100	–	> 100	–	> 100	–	–	–	> 100
COc1ccc(-c2cc(=O)c3c(OC)c(O)c(OC)cc3o2)cc1	–	> 100	–	> 100	–	> 100	–	> 100	–	> 100	–	> 100	–	> 100	–	> 100	–	> 100	–	> 100
COc1ccc2c3c(ccc2c1)NC(C(=O)O)CC3 (stereo not given)	–	> 100	–	> 100	–	82.9	–	> 100	–	> 100	–	> 100	–	> 100	–	> 100	–	> 100	–	> 100
Cc1ccc(C(=O)Nc2ccc(CN3CCN(C)CC3)c(C(F)(F)F)c2)cc1C#Cc1cnc(N)c2ccc(C#N)cc12	0.393	9.23	0.161	> 23.9	0.338	> 50	3.52	12.3	0.0188	9.55	1.1	18.2	0.28	> 46.5	0.167	7.3	9.41	> 50	9.46	> 50
O=C(/C=C/c1ccccc1)Nc1ncc(Cc2ccccc2)s1	0.271	6.25	0.287	20.8	0.212	0.609	0.206	0.732	0.491	> 64.5	0.562	> 49.1	0.288	2.13	0.141	> 33.4	0.303	3.42	0.44	> 100
CN(C)c1ccc(/C=N/NC(=O)CSc2nc3sc4c(c3c(=O)n2-c2ccccc2)CCCCC4)cc1	3.2	17.1	3.85	40.5	> 100	> 100	4.52	25.5	3.08	> 100	3.79	> 100	4.14	> 100	3.96	> 100	7.5	> 100	7.08	> 100
COc1ccc(NC(=O)COc2ccccc2)c(C(N)=O)c1	0.742	20.1	0.871	97.1	0.368	> 100	0.506	4.01	4.71	> 100	2.61	35.5	0.505	6.56	0.588	> 100	3.2	> 87.3	–	–
NNC(=O)C(O)C(O)C(O)CO (stereo not given)	–	> 100	–	> 100	–	> 100	–	–	–	> 100	–	> 100	–	> 100	–	> 100	–	> 100	–	> 100
C=C(c1ccc(OC)c(/C=C/C(=O)c2cc(OC)c(OC)c(OC)c2)c1)c1cc(OC)c(OC)c(OC)c1	0.773	2.12	1.46	50	2.03	13.4	1.41	3.05	2.07	5.88	1.95	4.9	2.03	4.98	0.609	1.9	1.84	3.37	2.23	9.74
COc1ccc2c(c1)O/C(=C\c1ccc([N+](=O)[O-])o1)C2=O	1.98	6.56	2.36	7.32	1.8	5.69	1.6	4.14	1.35	7.3	1.99	5.81	1.18	3.12	0.246	0.747	1.81	3.64	–	–
COc1ccc(C2CC(c3ccc4ccccc4c3)=NN2/C=C2\SC(=S)N(NC(=O)Cc3ccccc3Nc3c(Cl)cccc3Cl)C2=O)cc1 (stereo not given)	0.402	> 36.7	0.415	> 37.6	0.404	2.89	0.282	1.12	0.588	> 42	0.793	> 46.8	1.89	> 100	0.482	> 39.6	1.39	> 33.3	1.45	> 61.5
CS(=O)(=O)c1nccc(-c2c(-c3cccc(OCc4ccccc4)c3)nc3sccn23)n1	19.6	> 100	12.9	> 100	3.97	27	> 60.4	> 100	10.3	> 100	12.8	> 100	25.3	> 100	7.16	> 100	3.49	8.36	26.4	> 100
Cc1c(C)n(CC(O)CNC2CCCCC2C)c2ccccc12 (stereo not given)	13.8	26.7	16.3	43	19.2	42.7	15.8	30.4	16	31.9	16.8	32.8	2.21	4.82	12	24.4	3.03	10.5	–	–
O=C1/C(=N/N=C(c2ccccc2)c2ccccc2)c2ccccc2-c2ccccc21	–	> 100	–	> 100	–	> 100	–	> 100	–	> 100	–	> 100	–	> 100	–	> 100	–	–	–	> 100
C=CC1CC12C(=O)C1OC2(C)C2C(=O)c3c(O)cccc3C(=O)C12 (stereo not given)	28.7	77.7	21.8	88.3	18.7	46.9	41.6	> 100	–	–	26.9	85.6	31.7	> 100	38.1	> 100	31.1	> 100	56.9	> 100
S=P(C1CCCCC1)(C1CCCCC1)C(c1cccnc1)N1CCCC1 (stereo not given)	–	46.6	–	84.3	–	37	–	35.2	–	33.8	–	34.6	–	37.3	–	34.2	–	–	–	41.7
CCCCCCCCCCCCCCCCCc1cc(Cl)nc(Cl)n1	–	> 100	–	> 100	–	> 100	–	> 100	–	> 100	–	> 100	–	–	–	–	–	> 100	–	> 100
COc1ccc2nc(-c3ccc(Cl)cc3)cc(-c3nnc(SCC(=O)Nc4ccc(/C(C)=N\O)cc4)o3)c2c1	0.974	1.9	2.77	17.9	> 50	> 50	3	10.7	3.93	20.6	1.38	4.3	1.15	3.53	–	–	2.98	31.5	3.01	15.3
COc1ccccc1CN=C1NC(=O)/C(=C/c2ccc3ncccc3c2)S1	4.51	> 16.1	6.61	> 24.1	10.3	> 25	5.28	> 20.3	6.56	> 19.4	8.65	> 25	5.92	> 24.1	3.1	> 25	17.5	> 25	–	–
